Assay [1] has as its system SMN2-luciferase reporter construct. The experiment in a line: SMN2-luciferase splicing reporter luminescence assay in C33A cells. The format is cell-based, human. How it is done: (§1) In a screen to identify compounds capable of enhancing the inclusion of exon 7 in SMN2 mRNA, cells of the human cervical carcinoma cell line C33A (ATCC#HTB-31) were stably transformed with an SMN fragment/luciferase reporter gene construct that incorporated exons 6-8 of SMN1 or SMN2 for use in a high-throughput screening assay. These cells were cultured in Dulbecco's Modified Eagle's Medium (DMEM) with 10% Fetal Bovine Serum (Sigma F 2442), 50 units/mL penicillin 50 μg/mL streptomycin sulfate and 400 mg/L G418 (i.e. Geneticin, Gibco, cat. No. 11811-031). The assay medium used to perform the luciferase assay was identical to the growth medium except the G418 selection agent was omitted. To perform the luciferase assay, a single reagent (25 mM glycylglycine, 15 mM magnesium sulfate, 4 mM EGTA, adjusted to pH 7.85, to which is added 10 μM D-luciferin (Sigma L9504), 10 mM dithiothreitol (DTT, Roche Molecular Biochemicals 100034), 2 mM adenosine 5′-triphosphate (ATP, Sigma A7699), 50 μM CoenzymeA, sodium salt (Sigma C 3144) and 1.5% Triton X-100) was used to lyse the cells and to initiate the luciferase reaction.
(§2) Using this cell-based luminescence assay, a screen was performed to identify compounds that modulate SMN splicing. Stably transfected C33A cells (˜35-40 M cells/flask) were cultured, then removed from T-175 culture flasks with 3 mL trypsin, and quenched with 7 mL assay medium. The cells were spun down and re-suspended in assay medium to a concentration of ˜200,000 cells/mL. Cells were immediately seeded in 384-well assay plates (Nalge Nunc white plates, #164610) 57 μL/well for a cell density of 11,000 cells/well. Compounds from a library obtained from the National Institute of Neurological Disorders and Stroke (NINDS) were added to the cells to a final concentration of 10 μM (diluted with assay medium by 1000× from the 10 mM stock solution in DMSO). The cells were incubated with the test compounds at 37° C. for ˜48 hr. A Zymark Sciclone ALH was used for cell seeding and compound addition. After incubation, the assay plates were cooled to room temperature for ˜10-60 minutes. The medium and compounds were aspirated from the wells, followed by 6 rinse/aspirate cycles with a PBS solution. 53 μL of the luciferase assay reagent was added and the plate was immediately transferred to a luminescence plate reader. The plate was shaken for 30 minutes prior to reading. The plate processing steps were performed on an integrated Packard Minitrak/Sidetrak platereader.
(§3) To analyze the data, the dark count background was first subtracted from all luminescence readings. The signal from each compound treated well was divided by the average of 48 control wells on the same 384-well plate. Each compound library plate was tested in triplicate with each of the two cell lines, and the entire assay was repeated on two separate occasions, yielding six readings for each compound for each cell line. The highest and lowest of the six normalized readings were dropped and the remaining four readings averaged. These average values of compound-treated luminescence versus control luminescence are denoted “Xnorm(y)”, where X indicates the cell line, SMN1-luciferase or SMN2-luciferase, and y represents the compound. The difference of [SMN2norm(y)−SMN1norm(y)] measures the selective change in SMN2-luciferase expression versus change in SMN1 luciferase production upon treatment with compound y. This is the final score that is output.
(§4) These dilutions were created with a Zymark Sciclone ALH Z-8. Once created, the assay was performed as described for the screening process. Concentrations required to achieve 50% of the maximally achievable effect for each compound (“EC50”) were calculated using Xlfit (IDBS).

For assay [2] the test system is unchanged. The experiment in a line: SMN2-luciferase splicing reporter luminescence assay in NSC34 cells. In kind it is cell-based, mouse. The source says:
For example, when luciferase is used as the reporter gene in an SMN splicing assay, synthesis of full-length protein can be monitored by luminescence; positive drug candidates will elicit an increase in the amount of luminescence produced from an SMN2-luciferase cassette, which is normally inefficiently spliced, but will not affect the level of luminescence in cells expressing the SMN1-luciferase reporter (because SMN1 transcripts are normally spliced to include exon 7 about 100% of the time). ELISA, Western blotting or gem counts (obtained using indirect immunofluorescence microscopy) can be used to verify the increase in SMN2-luciferase protein levels, and analysis by RNAase protection, Northern blot or RT-PCR, such as quantitative or semiquantitative, can be used to determine whether the effect of the compound is at the level of splicing or mRNA stability. Identification of a role for indoprofen or analogs of this compound in SMN splicing in vitro can be achieved through the generation of stable cell lines expressing the SMN-reporter gene (e.g., SMN-luciferase) splicing cassette. For example, the embryonic mouse spinal cord cell line NSC34 and the human cervical carcinoma cell line C33A can be used for the methods of the invention. […]

For a further assay, the system named is SMN1-luciferase control. The experiment in a line: SMN1-luciferase control splicing reporter luminescence assay in C33A cells. The format is cell-based, human. The protocol:
as §1, §2, §3, §4

Structures are written as SMILES.

For `CC(Cc1ccccc1)C(=O)O` (stereo not drawn) [Alpha-methylhydrocinnamic acid], in assay [1], the “Effect on splicing of SMN2-luciferase in C33A cells” value is reported as “Decreased”. For the same compound, the “Effect on splicing of SMN2-luciferase in NSC34 cells” value in assay [2] is “(no effect in NSC34”. Also, in the assay on SMN1-luciferase control, the “Effect on splicing of SMN1-luciferase control in C33A cells” value was “Decreased”.

Source of the values: US20090031435A1, “SMA Therapy and Cell Based Assay” (priority 2002, published 2009).
